Laboratory results taken from patent US20250388542A1, “ANALOGUES OF PENTAMIDINE AND USES THEREFOR” (Auransa Inc., priority 2018, published 2025).
“Also recorded” adds a separate entry of the source.

Columns and labels:
[1] = system: MCF7; experiment: CellTiter-Glo cytotoxicity, cancer cell line panel / breast cancer study; assay type: cell-based; conditions: Homo sapiens; MCF7, Invasive ductal carcinoma
Description: (§1) The objective of this study is to investigate potential cell killing effect of Compounds 1-15 on 3 cancer cell lines. 50% inhibition concentration (IC50) was determined for these compounds in various cancer cell lines using CellTiter-Glo™ luminescent cell viability assay at different compound concentrations. Each cell line (e.g., NCI-H209; NCI-H69; and SW1271) was treated with Compounds 1-15 and culture medium contains 0.2% [v/v] DMSO vehicle control. All the cells were cultured in the media supplemented with 10-20% fetal bovine serum at 37° C., 5% CO2 and 95% humidity.
(§2) The objective of this study is to investigate the effect of Compound 1 on cytotoxicity against 61 different types of cancer cell lines. IC50 were values were obtained using CellTiter-Glo™ as described above. Each cell line shown in Table 3 was treated with Compound 1, a standard chemotherapy drug, cisplatin, as reference control and culture medium contains 0.2% [v/v] DMSO vehicle control. All cancer cell lines were cultured in media supplemented with 10-20% fetal bovine serum at 37° C., 5% CO2 and 95% humidity.
(§3) The objective of this study is to investigate the effect of Compound 1 on cell viability of various types of breast cancer. Four different breast cancer cell lines were employed in the study. Each cell line shown in Table 5 was treated with Compound 1 and standard of care (cisplatin) and culture medium contains 0.2% [v/v] DMSO vehicle control and IC50 values were obtained as described above. The raw data values from the CellTiter-Glo™ cell viability assay expressed in relative luminescence units were normalized to the vehicle for each individual plate, and any reduction in luminescence indicated a decrease in viability (%). The data was analyzed in GraphPad PRISM using a non-linear sigmoidal plot with variable slope (asymmetric four-point linear regression), and an IC50 value for each compound was generated. The experiment tested pentamidine, compound 1, and standard-of-care control Cisplatin in full growth media for 8 days. Cells were initially treated with the test compounds on Day 0, and the cells were then replenished with fresh compound dilutions on Day 3. Pentamidine, Compound 1, and cisplatin were tested at 9 concentration points; 100, 33.33, 11.11, 3.70, 1.23, 0.41, 0.14, 0.05, and 0.02 μM (final DMSO concentration=0.5%).

[2] = system: HCC1954; experiment: as above; assay type: cell-based; conditions: Homo sapiens; HCC1954, Ductal breast carcinoma
Description: as §1, §2, §3

[3] = system: DU4475; experiment: as above; assay type: cell-based; conditions: Homo sapiens, DU-4475; DU4475, Breast carcinoma
Description: as §1, §2, §3

[4] = system: ZR-75-1; experiment: as above; assay type: cell-based; conditions: Homo sapiens; ZR-75-1, Invasive ductal carcinoma
Description: as §1, §2, §3

[5] = Human microsomal CL rate; assay type: in vitro ADME; conditions: human microsomes
[6] = system: COLO 205-Luc colon cancer tumor cells; experiment: Colon orthotopic in vivo study; conditions: for Body weight (mean ± SEM): in g (unit assumed)
Description: Approximately 2.0× Luciferase stably expressing colon cancer tumor cells (COLO 205-Luc) cells suspended in 30 μl of DPBS were injected into cecum wall of BALB/c nude mice.
The animals were assigned into groups using an Excel-based randomization software performing stratified randomization based upon their bioluminescence intensity. Treatment was initiated according to the predetermined regimen as shown in the experimental design table.
Mice were administered compound 1 at 10 mg/k daily, 20 mg/kg daily, 10 mg/kg twice daily, 20 mg/kg twice daily, or 40 mg/kg daily.
The major efficacy endpoint was bioluminescence (intensity values and change from baseline). The surgically inoculated mice were weighed and intraperitoneally administered luciferin at a dose of 150 mg/kg. Ten minutes after the luciferin injection, the animals were pre-anesthetized with the mixture gas of oxygen and isoflurane. When the animals were in a complete anesthetic state, the mice were moved into the imaging chamber for bioluminescence measurements with an IVIS (Lumina II) imaging system. The bioluminescence of the whole animal body, including primary and metastatic tumors, was measured and recorded once per week.
Tumor Growth Inhibition (TGI) was calculated for each group using the formula: TGI (%)=[1−(Ti−T0)/(Vi−V0)]×100; Ti is the average tumor bioluminescence value of a treatment group on a given day, T0 is the average tumor bioluminescence value of the treatment group on day 0, Vi is the average tumor bioluminescence value of the vehicle control group on the same day with Ti, and V0 is the average tumor bioluminescence value of the vehicle group on day 0.
For comparison among three or more groups, a one-way ANOVA was performed. When a non-significant F-statistics (a ratio of treatment variance to the error variance) was obtained, comparisons between groups were carried out with Dunnett t(2-sided). All data were analyzed using SPSS 17.0. p<0.05 is considered to be statistically significant.

[7] = 10 mg/kg, BID, day 0 after the start of treatment
[8] = 10 mg/kg, QD, day 0 after the start of treatment
[9] = 20 mg/kg, BID, day 0 after the start of treatment
[10] = 20 mg/kg, QD, day 0 after the start of treatment
[11] = 40 mg/kg, QD, day 0 after the start of treatment

SMILES: N=C(N)c1ccc(OCCCCCOc2ccc(C(=N)N)nc2)cc1 [Compound 1, 5-(5-(4-carbamimidoylphenoxy)pentyloxy)picolinimidamide]
- IC50 [1]: 0.93 µM
- IC50 [2]: 2.71 µM
- IC50 [3]: 0.24 µM
- IC50 [4]: 1.32 µM
- microsomal CLint [5]: 13.6 µL/min/mg
- Relative bioluminescence (mean ± SEM) [6, 7]: 100 ± 0%
- Body weight (mean ± SEM) [6, 7]: 21.0 ± 0.4
- Body weight (mean ± SEM) ([6]; 10 mg/kg, BID, day 3): 21.2 ± 0.4
- Relative bioluminescence (mean ± SEM) ([6]; 10 mg/kg, BID, day 7): 447 ± 103%
- Body weight (mean ± SEM) ([6]; 10 mg/kg, BID, day 7): 21.2 ± 0.4
- Body weight (mean ± SEM) ([6]; 10 mg/kg, BID, day 10): 21.2 ± 0.3
- Relative bioluminescence (mean ± SEM) ([6]; 10 mg/kg, BID, day 14): 1033 ± 385%
- Body weight (mean ± SEM) ([6]; 10 mg/kg, BID, day 14): 21.8 ± 0.4
- Body weight (mean ± SEM) ([6]; 10 mg/kg, BID, day 17): 22.1 ± 0.4
- Relative bioluminescence (mean ± SEM) ([6]; 10 mg/kg, BID, day 22): 2993 ± 1325%
- Body weight (mean ± SEM) ([6]; 10 mg/kg, BID, day 22): 21.2 ± 0.4
- Body weight (mean ± SEM) ([6]; 10 mg/kg, BID, day 24): 21.5 ± 0.3
- Relative bioluminescence (mean ± SEM) ([6]; 10 mg/kg, BID, day 28): 2715 ± 950%
- Body weight (mean ± SEM) ([6]; 10 mg/kg, BID, day 28): 22.0 ± 0.3
- Relative bioluminescence (mean ± SEM) [6, 8]: 100 ± 0%
- Body weight (mean ± SEM) [6, 8]: 20.9 ± 0.5
- Body weight (mean ± SEM) ([6]; 10 mg/kg, QD, day 3): 21.4 ± 0.5
- Relative bioluminescence (mean ± SEM) ([6]; 10 mg/kg, QD, day 7): 351 ± 88%
- Body weight (mean ± SEM) ([6]; 10 mg/kg, QD, day 7): 21.6 ± 0.5
- Body weight (mean ± SEM) ([6]; 10 mg/kg, QD, day 10): 21.5 ± 0.4
- Relative bioluminescence (mean ± SEM) ([6]; 10 mg/kg, QD, day 14): 1425 ± 930%
- Body weight (mean ± SEM) ([6]; 10 mg/kg, QD, day 14): 21.7 ± 0.4
- Body weight (mean ± SEM) ([6]; 10 mg/kg, QD, day 17): 21.7 ± 0.4
- Relative bioluminescence (mean ± SEM) ([6]; 10 mg/kg, QD, day 22): 2819 ± 1388%
- Body weight (mean ± SEM) ([6]; 10 mg/kg, QD, day 22): 21.7 ± 0.5
- Body weight (mean ± SEM) ([6]; 10 mg/kg, QD, day 24): 22.2 ± 0.6
- Relative bioluminescence (mean ± SEM) ([6]; 10 mg/kg, QD, day 28): 3171 ± 1602%
- Body weight (mean ± SEM) ([6]; 10 mg/kg, QD, day 28): 22.6 ± 0.5
- reducing tumor growth ([6]; 20 mg/kg or 40 mg/kg daily): non-statistically significant trend
- Relative bioluminescence (mean ± SEM) [6, 9]: 100 ± 0%
- Body weight (mean ± SEM) [6, 9]: 20.9 ± 0.5
- Body weight (mean ± SEM) ([6]; 20 mg/kg, BID, day 3): 20.9 ± 0.5
- Relative bioluminescence (mean ± SEM) ([6]; 20 mg/kg, BID, day 7): 299 ± 91%
- Body weight (mean ± SEM) ([6]; 20 mg/kg, BID, day 7): 21.1 ± 0.5
- Body weight (mean ± SEM) ([6]; 20 mg/kg, BID, day 10): 21.1 ± 0.5
- Relative bioluminescence (mean ± SEM) ([6]; 20 mg/kg, BID, day 14): 1108 ± 433%
- Body weight (mean ± SEM) ([6]; 20 mg/kg, BID, day 14): 21.5 ± 0.6
- Body weight (mean ± SEM) ([6]; 20 mg/kg, BID, day 17): 21.6 ± 0.6
- Relative bioluminescence (mean ± SEM) ([6]; 20 mg/kg, BID, day 22): 2340 ± 1230%
- Body weight (mean ± SEM) ([6]; 20 mg/kg, BID, day 22): 20.9 ± 0.5
- Body weight (mean ± SEM) ([6]; 20 mg/kg, BID, day 24): 21.3 ± 0.5
- Relative bioluminescence (mean ± SEM) ([6]; 20 mg/kg, BID, day 28): 1877 ± 1076%
- Body weight (mean ± SEM) ([6]; 20 mg/kg, BID, day 28): 21.7 ± 0.5
- Relative bioluminescence (mean ± SEM) [6, 10]: 100 ± 0%
- Body weight (mean ± SEM) [6, 10]: 20.8 ± 0.4
- Body weight (mean ± SEM) ([6]; 20 mg/kg, QD, day 3): 20.8 ± 0.3
- Relative bioluminescence (mean ± SEM) ([6]; 20 mg/kg, QD, day 7): 171 ± 46%
- Body weight (mean ± SEM) ([6]; 20 mg/kg, QD, day 7): 20.8 ± 0.4
- Body weight (mean ± SEM) ([6]; 20 mg/kg, QD, day 10): 21.0 ± 0.3
- Relative bioluminescence (mean ± SEM) ([6]; 20 mg/kg, QD, day 14): 817 ± 269%
- Body weight (mean ± SEM) ([6]; 20 mg/kg, QD, day 14): 21.2 ± 0.3
- Body weight (mean ± SEM) ([6]; 20 mg/kg, QD, day 17): 21.3 ± 0.4
- Relative bioluminescence (mean ± SEM) ([6]; 20 mg/kg, QD, day 22): 923 ± 354%
- Body weight (mean ± SEM) ([6]; 20 mg/kg, QD, day 22): 21.1 ± 0.4
- Body weight (mean ± SEM) ([6]; 20 mg/kg, QD, day 24): 21.6 ± 0.3
- Relative bioluminescence (mean ± SEM) ([6]; 20 mg/kg, QD, day 28): 1613 ± 1022%
- Body weight (mean ± SEM) ([6]; 20 mg/kg, QD, day 28): 21.5 ± 0.4
- Relative bioluminescence (mean ± SEM) [6, 11]: 100 ± 0%
- Body weight (mean ± SEM) [6, 11]: 20.7 ± 0.5
- Body weight (mean ± SEM) ([6]; 40 mg/kg, QD, day 3): 20.7 ± 0.5
- Relative bioluminescence (mean ± SEM) ([6]; 40 mg/kg, QD, day 7): 210 ± 57%
- Body weight (mean ± SEM) ([6]; 40 mg/kg, QD, day 7): 20.2 ± 0.4
- Body weight (mean ± SEM) ([6]; 40 mg/kg, QD, day 10): 20.3 ± 0.5
- Relative bioluminescence (mean ± SEM) ([6]; 40 mg/kg, QD, day 14): 357 ± 109%
- Body weight (mean ± SEM) ([6]; 40 mg/kg, QD, day 14): 20.5 ± 0.5
- Body weight (mean ± SEM) ([6]; 40 mg/kg, QD, day 17): 20.5 ± 0.5
- Relative bioluminescence (mean ± SEM) ([6]; 40 mg/kg, QD, day 22): 525 ± 145%
- Body weight (mean ± SEM) ([6]; 40 mg/kg, QD, day 22): 20.4 ± 0.5
- Body weight (mean ± SEM) ([6]; 40 mg/kg, QD, day 24): 21.0 ± 0.5
- Relative bioluminescence (mean ± SEM) ([6]; 40 mg/kg, QD, day 28): 512 ± 206%
- Body weight (mean ± SEM) ([6]; 40 mg/kg, QD, day 28): 21.3 ± 0.5
- body weight loss as indirect measure of toxicity ([6]; all dose groups 10-40 mg/kg QD, 10-20 mg/kg BID): No groups lost weight obviously
- toxicity / tolerability ([6]; tumor-bearing BALB/c nude mice, all dose groups): no obvious toxicity; also recorded: does not have significant toxicity and is well tolerated
